US20100298141A1, “SUBSTITUTED PYRIDINE N-OXIDE HERBICIDES” (E. I. DU PONT DE NEMOURS AND COMPANY, priority 2007, published 2010)

Tests used:
pigweed = assay: Test C pre-/postemergence test; format: in vivo, Amaranthus retroflexus
How it was run: (§1)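 Compounds in a non-phytotoxic solvent with surfactant applied preemergence to seeded pots and, at the same time, postemergence to plants 2–18 cm tall (1- to 4-leaf stage). Paddy tests: pots flooded to 3 cm, compound applied into the water, depth held throughout.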

kochia = assay: Test C pre-/postemergence test; format: in vivo, Kochia scoparia
How it was run: as §1

wild oat = assay: Test C pre-/postemergence test; format: in vivo, Avena fatua
How it was run: as §1

redroot pigweed = assay: Test A pre-/postemergence greenhouse test; format: in vivo, Amaranthus retroflexus; conditions: for Plant response rating, Pigweed: 0 to 100 scale where 0 is no effect and 100 is complete control; for Pigweed plant response rating: 0 to 100 scale
How it was run: (§2)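 Visual injury ratings, made relative to untreated controls roughly ten days after treatment, cover both preemergence and postemergence application. Compounds in a surfactant-containing non-phytotoxic solvent were sprayed onto the soil surface after sowing and, simultaneously, onto young plants at the one- to two-leaf stage.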

[1] = system: common (oilseed) sunflower; assay: Test C pre-/postemergence test; format: in vivo, Helianthus annuus
How it was run: as §1

Surinam grass = assay: Test C pre-/postemergence test; format: in vivo, Brachiaria decumbens
How it was run: as §1

wheat = assay: Test C pre-/postemergence test; format: in vivo, Triticum aestivum
How it was run: as §1

rice = assay: Test C flooded paddy test; format: in vivo, Oryza sativa; conditions: Flood
How it was run: (§3)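 Ratings were visual and made relative to untreated controls after 13 to 15 greenhouse days.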

bermudagrass = assay: Test C pre-/postemergence test; format: in vivo, Cynodon dactylon
How it was run: as §1

corn = assay: Test A pre-/postemergence greenhouse test; format: in vivo, Zea mays; conditions: for Plant response rating, Corn: 0 to 100 scale where 0 is no effect and 100 is complete control
How it was run: as §2

catchweed bedstraw = assay: Test C pre-/postemergence test; format: in vivo, Galium aparine
How it was run: as §1

barnyardgrass = assay: Test C flooded paddy test; format: in vivo, Echinochloa crus-galli; conditions: Flood
How it was run: as §3

crabgrass = assay: Test C pre-/postemergence test; format: in vivo, Digitaria sanguinalis
How it was run: as §1

velvetleaf = assay: Test C pre-/postemergence test; format: in vivo, Abutilon theophrasti
How it was run: as §1

eastern black nightshade = assay: Test C pre-/postemergence test; format: in vivo, Solanum ptycanthum
How it was run: as §1

duck salad = assay: Test C flooded paddy test; format: in vivo, Heteranthera limosa; conditions: Flood
How it was run: as §3

blackgrass = assay: Test C pre-/postemergence test; format: in vivo, Alopecurus myosuroides
How it was run: as §1

[2] = 62 g ai/ha, Preemergence, scale 0 to 100
[3] = 125 g ai/ha, preemergence, scale 0 (no effect) to 100 (complete control)
[4] = Preemergence, 31 g ai/ha, scale 0 to 100 (0 no effect, 100 complete control)
[5] = preemergence, 250 g ai/ha, scale 0 (no effect) to 100 (complete control)
[6] = 62 g ai/ha, scale 0 to 100 (0 no effect, 100 complete control)
[7] = 250 g ai/ha, scale 0 to 100, 0 no effect, 100 complete control, 13 to 15 days

Cc1cc[n+]([O-])c(S(=O)(=O)Cc2c(C(F)(F)F)nn(C)c2OC(C)C(F)(F)F)c1 (stereo not shown) [Compound 96]
98: Oat, Wild plant response rating (wild oat; [5]) | Galium plant response rating (catchweed bedstraw; [3]) | Crabgrass, Large plant response rating (crabgrass; [5])
95: Oat, Wild plant response rating (wild oat; [3]) | Crabgrass, Large plant response rating (crabgrass; [3]) | Nightshade plant response rating (eastern black nightshade; [3])
80: Oat, Wild plant response rating (wild oat; [2]) | Pigweed plant response rating (redroot pigweed; Postemergence, 500 g ai/ha, 0 is no effect, 100 is complete control) | Surinam Grass plant response rating (Surinam grass; [2]) | Galium plant response rating (catchweed bedstraw; [2]) | Plant response rating, Crabgrass, Large (crabgrass; [4])
0: Plant response rating, Kochia (kochia; [4]) | Sunflower plant response rating [1, 2] | Sunflower plant response rating [1, 3] | Plant response rating, Sunflower [1, 4] | Wheat plant response rating (wheat; [2]) | Plant response rating, Wheat (wheat; [4]) | Plant response rating, Rice (rice; [6]) | Corn plant response rating (corn; Preemergence, 125 g ai/ha, 0 to 100 scale, 0 no effect, 100 complete control) | Plant response rating, Galium (catchweed bedstraw; [4]) | Plant response rating, Barnyardgrass (barnyardgrass; [6]) | Plant response rating, Barnyardgrass (barnyardgrass; [7]) | Plant response rating, Velvetleaf (velvetleaf; [4]) | Plant response rating, Ducksalad (duck salad; [6])
40: Velvetleaf plant response rating (velvetleaf; [3])
65: Plant response rating, Blackgrass (blackgrass; [4])
30: Plant response rating, Pigweed (redroot pigweed; Postemergence, 125 g ai/ha) | Sunflower plant response rating [1, 5] | Velvetleaf plant response rating (velvetleaf; [2])
100: Pigweed plant response rating (pigweed; [5]) | Kochia plant response rating (kochia; [3]) | Kochia plant response rating (kochia; [5]) | Surinam Grass plant response rating (Surinam grass; [3]) | Surinam Grass plant response rating (Surinam grass; [5]) | Bermudagrass plant response rating (bermudagrass; 62 g ai/ha, Preemergence, scale 0 to 100 (0 no effect, 100 complete control)) | Bermudagrass plant response rating (bermudagrass; [3]) | Bermudagrass plant response rating (bermudagrass; [5]) | Galium plant response rating (catchweed bedstraw; [5]) | Nightshade plant response rating (eastern black nightshade; [5]) | Blackgrass plant response rating (blackgrass; [2]) | Blackgrass plant response rating (blackgrass; [3]) | Blackgrass plant response rating (blackgrass; [5])
45: Wheat plant response rating (wheat; [3]) | Wheat plant response rating (wheat; [5])
70: Pigweed plant response rating (pigweed; [2]) | Pigweed plant response rating (pigweed; [3]) | Kochia plant response rating (kochia; [2]) | Plant response rating, Oat, Wild (wild oat; [4])
10: Plant response rating, Pigweed (pigweed; [4])
75: Plant response rating, Surinam Grass (Surinam grass; [4]) | Plant response rating, Nightshade (eastern black nightshade; [4])
85: Plant response rating, Bermudagrass (bermudagrass; [4]) | Crabgrass, Large plant response rating (crabgrass; [2]) | Nightshade plant response rating (eastern black nightshade; [2])
90: Pigweed plant response rating (redroot pigweed; Preemergence, 125 g ai/ha, 0 no effect, 100 complete control) | Plant response rating, Pigweed (redroot pigweed; Preemergence, 500 g ai/ha) | Velvetleaf plant response rating (velvetleaf; [5])
55: Plant response rating, Ducksalad (duck salad; [7])
50: Plant response rating, Corn (corn; Preemergence, 500 g ai/ha)
20: Plant response rating, Rice (rice; [7]) | Plant response rating, Corn (corn; Postemergence, 125 g ai/ha)
